Values joined by “and” are separate entries in the source; they are usually repeats but may differ in a detail not shown here. Identical values can stand only once.
How the values were obtained:
[1] = Pharmacokinetics of topotecan in blood, quantification by HPLC; assay type: in vivo, Balb C Mice
Method: Balb C Mice were injected with IgFUS-TNPs encapsulating topotecan (8 mg/kg per mouse body weight) and drug pharmacokinetics monitored by blood sample analyses. Blood samples (50-100 μL) were collected at time intervals (2 min-4 h) and transferred into pre-weighed plastic vials containing heparin (5 uL). Cold methanol (100 μL) was added to each and the mixed samples stored over dry ice or at −20° C. until required. After thawing, each vial was weighed again and the difference used to estimate then original sample volume. […] Batches of 5 samples were analysed three times using an Agilent 1100 HPLC equipped with a cooled sample chamber (8-12° C.), a guarded Thermo Hypersil 30×4.6 mm, 5 μm C18 column, a Diode Array Detector (UV/vis absorbance) and an Agilent 1260 Infinity fluorescence detector. […] Detection was by absorbance (210/254/280 nm for proteins and other biologicals; 380 nm for topotecan; all using a bandwidth of 8 nm c.p. reference at 700 nm) and fluorescence (Ex 400 nm; Em 545 nm; PMT-gain 18). Injections were 5-20 μL depending on the sample concentrations and quantifications were calculated from the fluorescence peak areas after calibration (the detector response was effectively linear over the sensitive range). Topotecan could be reliably identified even at extremely low concentrations (10-20 ng/mL) by its intrinsic fluorescence and retention time (3.33±0.03 min; N=45). […]

[2] = 7T MRI T1/T2 assessment of liposome samples and controls; assay type: physicochemical; design: r1 (relaxometry value): unit not given here; conditions: for T1 (s) 1param / T1 (s) 3param / T1 (s) ImageJ / T2 (s) 1param / T2 (s) ImageJ / T2 (s) 3param: 7 T
From the text: A series of MRI T1/T2 assessment studies have been carried out using a 7 T pre-clinical MRI scanner, with the assistance of Dr Po-Wah So (James Black Centre, KCL). The focus here has been to derive reliable r1/r2 relaxivities per molar Gd(III) for liposome produced using the [Gd]DOTA.DSA, [Gd]DOTA.Ahx.DSA and [Gd]DOTA.Aoc.DSA. This is reliant on both accurate measurements of the T1/T2 effects and also the exact gadolinium concentration in the prepared liposome suspensions. The extrusion and gel filtration processes make this latter hard to estimate, so Inductively Coupled Plasma Mass Spectrometry (ICP-MS) quantification is being assessed. This is turn required testing of suitable acid digestion conditions since the lipid-chelates may not be analysed directly. For both MRI and ICP-MS, commercial Gadovist is being used a positive control contrast agent of known Gd content. Assessment of temperature, buffer salt and liposome size effects on T1/T2 are also underway.
FIGS. 22 and 23 show Example T1 and T2 brightness traces for controls and liposome samples.
Comparison of liposomes containing different lipids as measured at 7T Magnet*.

[3] = 19.6 °C, conc >0.3 mM, dil not given
[4] = 19.6 °C, dil 1 (liposomes 20 mg/mL; Gadovist 3.1 or 3 mM), Gadovist 3 mM
[5] = 19.6 °C, dil 1 (liposomes 20 mg/mL; Gadovist 3.1 or 3 mM), Gadovist 3.1 mM
[6] = 35.5 °C, conc >0.3 mM, dil not given

## CC[C@@]1(O)C(=O)OCc2c1cc1n(c2=O)Cc2cc3c(CN(C)C)c(O)ccc3nc2-1 [free topotecan, topotecan]
[1]; i.v. tail vein, matched concentration, followed 4 h
  clearance of topotecan from the blood pool: cleared from the blood pool in mins
[1]; mouse, 'spiked' blood samples, previous results, read-out: loss of topotecan due to protein binding
  fraction unbound: 0.8 to 0.85

## O=C([O-])CN1CCN(CC(=O)[O-])CCN([C@H](CO)[C@H](O)CO)CCN(CC(=O)[O-])CC1.[Gd+3] (racemic) [Gadovist]
[2]; [3]
  T1 (s) 1param: 2.033 s
  T1 (s) 3param: 2.061 s
  T1 (s) ImageJ: 2.061 s
  T2 (s) 1param: 0.206 s
  T2 (s) ImageJ: 0.1 s
[2]; [4]
  T1 (s) 1param: 0.09174 s
  T1 (s) 3param: 0.07712 s
  T1 (s) ImageJ: 0.092 s
  T2 (s) 1param: 0.04691 s
  T2 (s) 3param: 0.0488 s
  T2 (s) ImageJ: 0.047 s
[2]; [5]
  T1 (s) 1param: 0.072 s
  T1 (s) 3param: 0.084 s
  T1 (s) ImageJ: 0.084 s
  T2 (s) 1param: 0.0431 s and 0.0426 s
  T2 (s) 3param: 0.0422 s and 0.0419 s
  T2 (s) ImageJ: 0.042 s
[2]; [6]
  T1 (s) 1param: 2.602 s
  T1 (s) 3param: 2.617 s
  T1 (s) ImageJ: 2.606 s
  T2 (s) 1param: 0.153 s
  T2 (s) ImageJ: 0.1 s
[2]; 39.5 °C, dil 1 (Gadovist 3 mM)
  T1 (s) 1param: 0.1297 s
  T1 (s) 3param: 0.1138 s
  T1 (s) ImageJ: 0.13 s
  T2 (s) 1param: 0.05335 s
  T2 (s) 3param: 0.05578 s
  T2 (s) ImageJ: 0.053 s
[2]; measured at 7T Magnet
  r1 (relaxometry value): 4.8
